{
  "source": "patent US6906069B1",
  "about": "“LXR modulators” (Amgen Inc., priority 1999, dated 2005)",
  "data": [
    {"molecular_target": "T1, LXRα (Homo sapiens, UniProt Q13133)", "T1 construct": "expressed in transfected cells; host or cells: 293 cells", "T1 sequence (Q13133 209-447 limits assumed)": "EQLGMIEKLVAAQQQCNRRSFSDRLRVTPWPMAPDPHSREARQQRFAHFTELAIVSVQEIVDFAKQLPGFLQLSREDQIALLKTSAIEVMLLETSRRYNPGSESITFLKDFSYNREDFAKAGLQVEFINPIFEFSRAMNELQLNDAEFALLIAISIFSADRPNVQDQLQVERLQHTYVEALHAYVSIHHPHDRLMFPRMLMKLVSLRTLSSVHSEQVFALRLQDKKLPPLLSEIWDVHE", "test": "cell-based GAL4-LXRα ligand-binding domain luciferase reporter screen for agonists", "settings": "10 μM compound; transfected 293 cells; relative to control (no additional compound) assigned a value of 1", "protocol": "In order to identify agonists for LXRα, a cell-based high throughput screen was developed. Briefly, a DNA-binding domain of the nonreceptor transcription factor GAL4 was fused to the putative ligand-binding domain of LXRα. The resulting construct was introduced into 293 cells, together with an UAS-containing luciferase reporter construct. The transfected cells were then treated with the compounds and luciferase activity was measured. Individual compounds were evaluated relative to a control (no additional compound) at a concentration of 10 μM. Relative luciferase activity is provided below for five of the compounds described in the Examples above (luciferase activity of the control was assigned a value of 1).", "values": [
      {"smiles": "CC(c1ccco1)N(C(=O)C12CC3CC(CC(C3)C1)C2)c1ccccn1", "note": "(centres unmarked) [Example 1]", "Relative Activity (relative luciferase activity)": 4},
      {"smiles": "CC(c1ccco1)N(C(=O)C12CC3CC(CC(C3)C1)C2)c1cccnc1", "note": "(centres unmarked) [Example 2]", "Relative Activity (relative luciferase activity)": 5},
      {"smiles": "CC(c1ccco1)N(C(=O)C12CC3CC(CC(C3)C1)C2)c1ccncc1", "note": "(centres unmarked) [Example 3]", "Relative Activity (relative luciferase activity)": "≧10"},
      {"smiles": "CC(c1ccco1)N(C(=O)C12CC3CC(CC(C3)C1)C2)c1ccccc1", "note": "(centres unmarked) [Example 4]", "Relative Activity (relative luciferase activity)": 3},
      {"smiles": "CC(c1ccccn1)N(C(=O)C1(C)CCCCC1)C(C)c1ccco1", "note": "(centres unmarked) [Example 5]", "Relative Activity (relative luciferase activity)": "≧10"}
    ]}
  ]
}
